melting point [°C]	Compound
206 to 210	COc1ccccc1Oc1c(O)nc(SC)nc1O
174 to 176	O=C(O)c1ccc([N+](=O)[O-])cc1-c1ccccc1
234	COc1cc(NC(=O)Oc2ccccc2)ccc1S(=O)(=O)n1c(=O)n(C2CCCCCC2)c2cc(Cl)ccc21
238 to 242	CN1CCN(c2ccnc3c(NC(=O)c4c(Cl)cccc4Cl)cccc23)C1=O
95 to 97	CC(=O)c1nc2ccc(OC(C)C)cc2cc1O
119 to 120	CC(C)c1nn(-c2ccc(C(F)(F)F)cn2)cc1CCCCOc1nn(-c2ccccc2)cc1CC(=O)O
137 to 140	O=C1N(CCCCN2CCN(C3=NS(=O)(=O)c4ccccc43)CC2)CSC12CCCC2
161 to 163	Oc1ccc2c(c1)CC(NCc1ccccc1)CC2 (centres undefined)
250 to 251	Cc1ccc(C(=O)c2c(O)cc(C(=O)O)cc2[N+](=O)[O-])cc1
158 to 162	Oc1cccc(NCc2ccccc2)n1
206 to 207	COC(=O)C1=C(C)NC(C#N)=C(C(=O)OC)C1c1cccc([N+](=O)[O-])c1 (centres undefined)
218 to 220	COc1cccc2c(Nc3ccccc3C)nc(N)nc12
246 to 247	CC(=O)c1c(Nc2ccccc2)n[nH]c1C
180 to 182	CC(=O)N1CCc2ccc(NS(=O)(=O)c3ccccc3)cc2C1
293 to 295	N#Cc1ccc(NC(=O)c2cc3cccc(S(=O)(=O)c4ccccc4)c3[nH]2)c(-c2nnn[nH]2)c1
196 to 199	CCCCC1OC(=O)c2cc(NC(N)=O)ccc21 (centres undefined)
93 to 95	CC1(C)NCC(c2ccccc2)=NO1
188	CN(C)c1ccccc1CC(=N)N1C[C@@H]2C(=O)CCC(c3ccccc3)(c3ccccc3)[C@@H]2C1
114 to 115	CC(=O)C[C@@H]1c2cc(C#N)ccc2OC(C)(C)[C@H]1O (relative stereo)

melting point [°C]	Compound
210 to 211	N#CC(NC(=O)c1cccn2cc(-c3ccccc3)nc12)c1cccc(Cl)c1 (centres undefined)
168 to 170	CC(=O)COc1ccc2ccc(=O)oc2c1
52.5 to 54	CS(=O)(=O)C(=[N+]=[N-])C(=O)CCc1ccccc1
95	Cc1nn(C)c(C)c1-c1cccc(OC2SCC(O)C(O)C2O)c1 (centres undefined)
145 to 146	O=C(O)c1cc2ccccc2c(-c2cccc(I)c2)n1
130	N#COc1ccc(C2(c3ccc(OC#N)cc3)OC(=O)c3ccccc32)cc1
131 to 134	O=C(C=Cc1ccccn1)c1ccc(OCc2ccccc2)cc1
189 to 192	O=C(NC(=O)c1cccnc1Cl)Nc1cc(Cl)c(OC(F)(F)C(Cl)Cl)c(Cl)c1
134 to 135	CCOCN1C(C)=C(C(=O)O)C(c2cccc([N+](=O)[O-])c2)C(C(=O)OC)=C1C (single isomer, unassigned; (-))
112	CCCc1nc(C)n2ncnc2c1Cc1ccc(-c2ccccc2C#N)cc1
96 to 105	C=C1CC(c2cnc(-c3ccccc3Cl)s2)N(C)C1=O (centres undefined)
224 to 227	CC(C)OC(=O)COc1ccc(NC(=O)NC(=O)c2ccc(C(N)=S)cc2)cc1
201 to 202	CC(=O)Oc1cc2ccccc2cc1C(N)=O
132 to 134	COc1cc(OC)nc(NC(=O)NS(=O)(=O)Oc2ccccc2OCCCl)n1
210 to 212	CC(C)CC(SC1CCCCC1)c1c(O)cc(-c2ccccc2)oc1=O (centres undefined)
192 to 193	COc1cccc(Nc2cc(-c3nnc(C)o3)ccn2)c1
138 to 139	CCN(S(=O)(=O)NC(=O)N1N=C(C)CC1c1ccccc1)S(=O)(=O)N(C)C (centres undefined)
125	Cc1ccc2c(c1)[nH]c(=O)n2CCCOS(C)(=O)=O
43	CC(=O)SCCCCC(=O)c1cccnc1

melting point [°C]	Compound
118 to 120	COC(=O)c1ccc(N)cc1O
114 to 117	CCOC(=O)N1N=C(c2ccc(N)cc2)c2cc(Br)ccc2CC1C (centres undefined)
148 to 152	Cc1cc(C#N)ccc1C1(CC2c3ccccc3Oc3ccccc32)NC(=O)NC1=O (centres undefined)
182 to 183	COc1cn(-c2ccc(N3CCOCC3)c(F)c2F)nc(-c2ccnn2-c2ccccc2)c1=O
71 to 77	CCOC(=O)Cc1ccnc2c(N)cccc12
222 to 224	Cn1c(=O)c2c(nc(C=Cc3cccc(N)c3)n2C)n(C)c1=O
143 to 144	O=COC[C@@H]1C(=O)N[C@H]1SC(c1ccccc1)(c1ccccc1)c1ccccc1 (relative stereo)
275	CCc1[nH]c(=S)[nH]c1C(=O)c1ccncc1
240	Cc1cc(-c2ccc(Cl)c(C)c2)nc(-c2cccc(-c3ccc(S(N)(=O)=O)s3)c2)n1
169 to 171	C=C(COC1CC2C3CCC4=CC(=O)CCC4(C)C3(F)C(O)CC2(C)C1(O)C(=O)CO)c1ccccc1 (centres undefined)
> 300	COC(=O)Cc1cccc(NC(=O)NC2C(=O)Nc3ccccc3NC2=O)c1
140 to 141	CCOC(=O)c1cc2cc(Oc3ccc(S(C)(=O)=O)nc3)cc(CC)c2[nH]1
140	COc1ccc(C=C2c3ccccc3C(=NO)c3ccccc32)cc1O
59 to 60	O=C(OCc1ccccc1)C(CO)N(C(=O)Cc1ccccc1)C(=O)OCc1ccccc1 (centres undefined)
66 to 69	COC(=O)c1cc(C(C)=O)c(C(F)(F)F)cc1NC(C)=O
130	O=C(Cc1ccc(Cl)nc1)Nc1ccccn1
113	CC(=O)OC1CSC(Oc2cccc(-c3ccc(F)cn3)c2)C(OC(C)=O)C1OC(C)=O (centres undefined)
155 to 156	CN1C(=O)NC(=O)CC1c1ccccc1 (centres undefined)
171 to 173	COc1ccc(CC(=O)NC2CCN(Cc3ccccc3)CC2)cc1

Further lines, the molecule ahead of its results:

Compound	melting point [°C]
CCOc1cc([C@@H](CS(C)(=O)=O)N2Cc3cccc(NCC4CC4)c3C2=O)ccc1OC	147 to 149
COc1cc(OC)c(F)c(N2Cc3cnc(SC)nc3N(C3CC3)C2=O)c1F	173 to 176
Cc1ccc(-c2ncn(-c3ccc(OC(F)(F)C(F)(F)F)cc3)n2)cc1	130 to 132
COC(=O)c1nn(C)nc1C=O	107 to 108
C=CCOc1ccc(C#N)c(Cl)c1	50 to 52
CCCCNc1c(C(=O)OCC)c(C)nc(N)c1[N+](=O)[O-]	98 to 99
CCn1cc(C(=O)O)c(=O)c2cc(F)c(N3CCNC(c4ccc(Cl)s4)C3)cc21 (centres undefined)	232 to 234
COc1c(N2CCC(N)C(C)(C)C2)c(F)cc2c(=O)c(C(=O)O)cn(C3CC3)c12 (centres undefined)	222 to 224
CCc1ccc(C2CCN(CCCCNC(=O)c3ccc(NC(=O)c4ccc(Cl)cc4)cc3)CC2)c(OC)c1	235
c1cc(CN2CCCCC2)cc(OCCCNc2ccnc3ccccc23)c1	127 to 128
CCCc1cc(CCC)c2oc(Cc3ccc(OC)cc3)c(C)c2c1O	70 to 72
COc1ccc2[nH]cc(C3CCN(CCCCN4C(=O)CC5(CCCC5)CC4=O)CC3)c2c1	150
CCCCCc1nc(C(=O)OCC)c(C)[nH]1	89 to 90
C#CC1(O)C=CC2C3CCC4=CC(=O)CCC4(C)C3CCC21C (centres undefined)	206
NC(=O)CCC(C(N)=O)c1ccc(F)cc1 (centres undefined)	154 to 157
CNC(=O)[C@@H](N)C(C)(C)C	90 to 93
OCCOc1ccc(Cn2ccnc2)cc1	81 to 82
COc1cccc(-n2c(=O)n(O)c(=O)c3cc(F)c(N4CCN(C)CC4)cc32)c1	158 to 160
Cc1ccc(S(=O)(=O)Nc2cccc3ccc(Oc4ccc5nc(COc6ccc(CC7SC(=O)NC7=O)cc6)n(C)c5c4)cc23)cc1 (centres undefined)	137 to 144
CCCCCCCC(=O)OCC(COC(=O)CCCCCCC)OCn1cnc2c(=O)[nH]c(N)nc21	165 to 166
OCc1nnc2n1-c1sc(Cl)cc1C(c1ccccc1Cl)=NC2	219 to 221

Compound	melting point [°C]
O=C(NCc1cn(-c2ccc(N3CCSCC3)c(F)c2)nn1)c1cnccn1	216 to 218
COc1ccc(-c2cc(=O)n(CC=Cc3ccc(Cl)cc3)nc2-c2ccc(OC)c(F)c2)cc1	144 to 145
COc1cccc([C@@]23CCN(C)C[C@@H]2Cc2cc4ccccc4nc2C3)c1	154 to 156
CC(C)c1ccc(N(Cc2ccc(N(C)C)cc2)C(=O)C2CCCc3c(O)cccc32)cc1 (centres undefined)	200 to 202
CSc1cc(C(C)(C)C)ccc1O	160
N#Cc1nn(-c2c(Cl)cc(C(F)(F)F)cc2Cl)c(N)c1-c1cccnc1	265 to 267
NC(=O)NC1CCCc2sccc21 (centres undefined)	203 to 207
CC(C)c1ccc(N(Cc2ccc(N(C)C)cc2)C(=O)C2CCCc3cc(OCCO)ccc32)cc1 (centres undefined)	141
COc1cc(Nc2c(C#N)cnc3cc(/C=C/CN4CCOCC4)c(OC)cc23)c(Cl)cc1Cl	105 to 106
CC(SC1COC(c2ccc(C(=O)Nc3ccc(C(N)=O)cc3)cc2)OC1)C(O)(Cn1cncn1)c1ccc(F)cc1F (centres undefined)	230
COc1ccc(-c2ccc(Br)cc2N)cc1	128 to 130
Cc1c(C)c2c(c3c1NCC3)CC(C)(CI)O2 (centres undefined)	97 to 98
COc1cc(-c2cnc3[nH]cc(C(=O)C(C)(C)CO)c3n2)cc(OC)c1OC	227 to 229
CC(C)Oc1ccc(/C=C(\NC(=O)c2ccc(OCCCCC3CC3)cc2)C(=O)NCCO)cc1	53 to 55
CS(=O)(=O)c1ccc(-c2cc(C(F)(F)F)nn2-c2ccc(C#N)cc2)cc1	140 to 142
COC(=O)C(Oc1ccc(C23CC4CC(CC(C4)C2)C3)cc1)c1ccc(Oc2ccc(Cl)cc2)cc1 (centres undefined)	148 to 150
COc1c(-c2cc3c(s2)CCCC3=O)ccc2c(=O)c(C(=O)O)cn(C3CC3)c12	266 to 267
CCCCCCCCCCCCS(=O)(=O)N1CCCSC1=C(Cl)[N+](=O)[O-]	76 to 77
CC(=O)c1ccc(CC(C)NCC(O)c2ccccc2)cc1 (centres undefined)	120 to 135
O=C(Nc1cc(Cl)c(N2CCOCC2)c(Cl)c1)c1ccc(F)c(OCc2cccnc2)c1	209 to 211
CS(=O)(=O)On1c(C(F)(F)F)nc2ncc(Cl)cc21	137
